Type in all cases: in vivo, mouse
Data set [1] relates to retinal ganglion cells and amacrine cells. The data set can be described thus: NMDA-induced cell death, anti-HuC/D immunohistochemistry in the ganglion cell layer. The settings on record: 36 hours post-NMDA injection, 200 nmol NMDA intravitreal. The method, then:
(§1) Adult mice at 4 weeks of age were anesthetized with an intraperitoneal injection of ketamine (50 mg/kg mouse body weight) and xylazine (5 mg/kg mouse body weight). Intravitreal injection was performed using a microsyringe equipped with a 33 gauge needle. The tip of the needle was passed through the sclera, at the equator and next to the dorsal limbus of the eye, into the vitreous cavity. Injection volume is 1 μl per eye for AAVs or other chemicals including NMDA (Acros Organics, 100 mM) and XAV939 (Sigma, 10 μM).
Retinas were fixed with 4% paraformaldehyde in PBS for 30 minutes at room temperature, followed by overnight incubation at 4° C. in PBS containing 30% sucrose. […]
To examine MG proliferation induced by neurotoxic injury in the adult mammalian retina, 200 nmol was injected NMDA into the vitreous chamber of the mouse retina at 4 weeks of age. […] NMDA-induced cell proliferation was quantified by scoring the number of EdU^+ cells/mm^2 in retinal flatmount preparations. […]
To examine the ability of inhibition of Wnt signaling to suppress NMDA-induced MG proliferation, NMDA was co-injected with XAV939, a selective Wnt signaling antagonist (Huang et al., Nature, 2009, 461:614-620), and the number of EdU^+ cells per mm^2 in retinal flatmount preparations was quantified 60 hours post-injection, when the maximum number of EdU^+ cells were detected (FIG. 2A). […]

For data set [2], the system named is Müller glial cells (MGs). In words: NMDA-induced MG proliferation, EdU incorporation in retinal flatmount preparations. The method, then: as §1
EdU solution (1 ul) was intravitreally injected into the vitreous chamber at the concentration of 1 mg/ml. Analysis of EdU incorporation was performed using Click-iT EdU Kit (Invitrogen, Grand Island, N.Y.). In brief, retinal cryostat sections or flatmount preparations were washed in PBS first for 10 min and then washed twice in PBS containing 3% BSA, followed by permeabilization in PBS containing 0.5% Triton X-100 for 20 min. After washing twice in PBS containing 3% BSA, EdU detection components were resuspended according to manufacturer's instructions and applied directly to retinal samples. The solution for each EdU reaction has a total volume of 250 μl composed of 215 μl 1× Click-iT reaction buffer, 10 μl CuSO4, 0.6 μl Alexa Fluor azide, and 25 μl 1× Reaction buffer additive. After incubation in the reaction solution for 30 minutes at room temperature, samples were washed with PBS and mounted with Fluoromount-G for detection.
To examine MG proliferation induced by neurotoxic injury in the adult mammalian retina, 200 nmol was injected NMDA into the vitreous chamber of the mouse retina at 4 weeks of age. The same dosage of NMDA was previously used to introduce retinal injury leading to MG proliferation in adult rat and mouse retina (Karl et al., Proc Natl Acad Sci USA, 2008, 105:19508-19513; Ooto et al., Proc Natl Acad Sci USA, 2004, 101:13654-13659). Anti-HuC/D immunohistochemistry was used to assay the time course of NMDA-induced cell death in the ganglion cell layer (GCL). […] To assay cell proliferation, 1 μl of 1 mg/ml of EdU, a nucleoside analog of thymidine that is incorporated into DNA during active DNA synthesis, was injected into the vitreous chamber 5 hours before tissue collection at 24, 36, 48, 60, 72, and 96 hours post-NMDA injection. NMDA-induced cell proliferation was quantified by scoring the number of EdU^+ cells/mm^2 in retinal flatmount preparations. A small number (4.7±0.8) of EdU^−1 cells appeared 36 hours post-NMDA injection. The number of EdU^−1 cells continued to increase, reaching 223.3±8.3 and 264.5±8.4 at 48 and 60 hours, respectively, before it was reduced to 5.8±1.1 at 72 hours post-NMDA injection (FIG. 2A). The EdU^−1 cells were also immunoreactive for CyclinD3 and p27^kip1 (FIG. 2B), MG-specific nuclear antigens (Dyer and Cepko, Nat Neurosci. 2000, 3:873-880).
To examine the ability of inhibition of Wnt signaling to suppress NMDA-induced MG proliferation, NMDA was co-injected with XAV939, a selective Wnt signaling antagonist (Huang et al., Nature, 2009, 461:614-620), and the number of EdU^+ cells per mm^2 in retinal flatmount preparations was quantified 60 hours post-injection, when the maximum number of EdU^+ cells were detected (FIG. 2A). […] To assay whether XAV939 treatment affects NMDA-induced retinal damage, the number of HuC/D+ cells was quantified in the GCL at 60 hours post-injection.
Lin28 is a direct transcriptional target of Wnt/β-catenin signaling. […]

Data set [3] has as its system Wnt signaling pathway. The data set can be described thus: quantitative PCR of Wnt genes, Wnt antagonists and Wnt target genes after NMDA injury. As for the experimental part: Total RNA was extracted from retinas using TRIzol (Invitrogen, Grand Island, N.Y.) according to the manufacture's protocol. Reverse transcription (RT) was then performed at 42° C. for 2 hours in a volume of 20 μl containing 0.5 μg of oligo(dT), 1×RT buffer, 0.5 mM each deoxyribonucleotide triphosphate, 0.1 mM dithiothreitol, and 200 U of Superscript II reverse transcriptase (Invitrogen, Grand Island, N.Y.). Real-Time quantitative PCR (qPCR) was performed in triplicate with SsoFast™ EvaGreen supermix (Bio-Rad, Hercules, Calif.) using an iCycler real-time PCR detection system (Bio-Rad, Hercules, Calif.). The amplification protocol was 30 seconds at 94° C., 30 seconds at 56° C., and 30 seconds at 72° C., with a signal detection period of 7 seconds at 80° C. A melt curve analysis was performed at the end of the reaction to check the reaction specificity. Results were obtained after normalization to the expression level of the housekeeping gene, B-actin. All experiments were performed at least twice to ensure repeatable results.
To examine whether Wnt signaling is activated by NMDA-induced neurotoxic injury, quantitative PCR was performed to assay the RNA levels of Wnt genes at 3, 6, 12, 18, 24, 36, and 48 hours post-NMDA injection, relative to the PBS injected retina as a control. […] The upregulation of Wnt genes and a concomitant downregulation of WIF-1 and Dkk1 would predict activation of the canonical Wnt/β-catenin signaling pathway. Indeed, 24 hours post-NMDA injection, a 3.4-fold upregulation of CyclinD1 (Ccnd1, FIG. 2D), a target gene of the Wnt signaling pathway (Shtutman et al., Proc Natl Acad Sci USA, 1999, 96:5522-5527; Tetsu and McCormick, Nature, 1999, 398:422-426) and key regulator of the cell cycle progression from the G1 to S phase (Resnitzky et al., Mol Cell Biol. 1994, 14:1669-1679), was detected.

For `CN[C@H](CC(=O)O)C(=O)O` [NMDA], the “HuC/D+ cells remaining” value in data set [1] is reported as about 45%. Also, the “number of EdU+ cells/mm^2” value worked out at 4.7±0.8 cells/mm^2 in data set [2] (36 hours post-NMDA injection), 223.3±8.3 cells/mm^2 in data set [2] (48 hours post-NMDA injection), 264.5±8.4 cells/mm^2 in data set [2] (60 hours post-NMDA injection) and 5.8±1.1 cells/mm^2 in data set [2] (72 hours post-NMDA injection). In addition, in data set [3] (6-24 hours post-NMDA injection, relative to PBS injected retina), the “RNA levels for Wnt genes (Wnt2b, Wnt8a, Wnt8b, Wnt9a, Wnt10a), upregulation” value is “at least 3 fold”. Also, the “RNA levels for WIF-1” value in data set [3] (12 hours post-NMDA injection) was 1.6±0.2 % of the control. Moreover, the “RNA levels for Dkk1” value in data set [3] (24 hours post-NMDA injection) is reported as 13.2±0.6 % of the control. The “upregulation of CyclinD1 (Ccnd1)” value in data set [3] (24 hours post-NMDA injection) amounted to 3.4 fold. In addition, in data set [3] (post-NMDA injection), the “RNA levels of Lef1 and Axin2” value was “significant upregulation”.
Take `Oc1nc(-c2ccc(C(F)(F)F)cc2)nc2c1CSCC2` [XAV939]: in data set [2] (XAV939 co-injected with NMDA, 60 hours post-injection), the “number of EdU+ cells per mm^2 versus NMDA injection alone” value is listed as “significantly reduced”.

Source of the values: patent publication US20220040236A1, “COMPOSITIONS AND METHODS OF TREATMENT OF VISION LOSS THROUGH GENERATION OF ROD PHOTORECEPTORS FROM MÜLLER GLIAL CELLS” (ICAHN SCHOOL OF MEDICINE AT MOUNT SINAI, priority 2018, published 2022).
